Where two headings read alike, the source gives them in different places.
Key:
[1] = target: recombinant doubly mutated EGFR L858R, T790M kinase domain (mLT-EGFR) (Homo sapiens, UniProt P00533, L858R/T790M); experiment: Kinetic analysis (AssayQuant); type: biochemical; conditions: read-out: KI app
Experimental: Measurement of K I, K inact and K inact/K I was carried out by AssayQuant Technologies inc.

[2] = test system: BaF3 EGFR L858R/T790M/C775A cells; experiment: Ba/F3 growth inhibition (CellTiter Glo); type: cell-based, Murine; conditions: Mus musculus, BaF3, absence of IL-3, 72 h, read-out: LTC2: L858R/T790M/C775A GI50
Experimental: (§1) Growth inhibition in Ba/F3 cell lines were assessed in a 384-well format by CellTiter Glo assay (Promega) using the manufacturer’s recommended protocol. Cells were seeded on the day of compound addition and assessed following 72 h incubation including a vehicle only control. Ba/F3 EGFR-WT cells required supplementation with EGF (100 ng/mL, ThermoFisher, Cat No. PHG0311).

[3] = test system: BaF3 EGFR del19/T790M cells; experiment: Ba/F3 growth inhibition (CellTiter Glo); type: cell-based, Murine; conditions: Mus musculus, BaF3, absence of IL-3, 72 h, read-out: dT: del19/T790M GI50
Experimental: as §1

[4] = test system: BaF3 EGFR L858R/T790M cells; experiment: Ba/F3 growth inhibition (CellTiter Glo); type: cell-based, Murine; conditions: BaF3, absence of IL-3, 72 h, read-out: LT: L858R/T790M GI50
Experimental: as §1

[5] = test system: BaF3 EGFR WT cells; experiment: Ba/F3 growth inhibition (CellTiter Glo); type: cell-based, Murine; conditions: Mus musculus, 72 h
Experimental: as §1

[6] = test system: A431 (WT-EGFR) cells; experiment: Adherent cell growth inhibition (CyQUANT); type: cell-based; conditions: Homo sapiens, A-431; replenishment of compound every 72 h
Experimental: (§2) For adherent cell assays, each cell line was plated on day 0 in a 96-well plate at a density known to allow for exponential growth over 72 h. After 24 h, the compounds were diluted to the required concentrations in DMEM + 10% FBS media, maintaining a consistent final DMSO concentration of 0.1%. […] Growth inhibition was then assessed using a CyQUANT Direct Cell Proliferation assay (Invitrogen Cat No. C35011) following the manufacturer’s instructions. Fluorescence intensity (ex/em 480/520 nm) values were acquired using a PHERAstar microplate reader reader (BMG Labtech) and values were expressed as a percentage of the average DMSO treated value.

[7] = test system: H1975 (L858R, T790M) cells; experiment: Adherent cell growth inhibition (CyQUANT); type: cell-based; conditions: Homo sapiens, NCI-H1975; replenishment of compound every 72 h; read-out: H1975 EGFR GI50
Experimental: as §2

[8] = test system: EGFR phosphorylation (Tyr1068) in H1975 (L858R, T790M) cells; experiment: Western blot of EGFR phosphorylation; type: cell-based; conditions: H1975, 4 h exposure
Experimental: Cells, seeded on the previous day, were incubated with test compound at the indicated concentrations or DMSO (0.1%) for 4 h. […] Preparation of lysates and Western blotting was performed twice as independent experiments.

[9] = test system: panel of 394 kinases; experiment: Kinase selectivity panel, summary; type: binding; conditions: 1.0 μM
[10] = test system: pERK1/2 phosphorylation in H1975 (L858R, T790M) cells; experiment: Western blot of ERK1/2 phosphorylation; type: cell-based; conditions: H1975, 4 h exposure
Experimental: Cells, seeded on the previous day, were incubated with test compound at the indicated concentrations or DMSO (0.1%) for 4 h. Cells were lysed in Phosphosafe extraction buffer (Merck, Cat. No. 71296) combined with cOmplete Protease Inhibitor Cocktail (Merck, Cat. No. 4693116001) prepared as per the manufacturer’s instructions. Protein concentrations were determined using BCA Protein Assay Kit (Thermo Scientific, Cat. No. 23227). Preparation of lysates and Western blotting was performed twice as independent experiments.
Samples were prepared by diluting lysates in PBS to the desired concentration and before adding 4X XT sample buffer. Samples were then denatured at 98 °C for 5 min and then centrifuged to remove the residue. […] The quality of transfer was assessed using Ponceau S Stain (Sigma-Aldrich Cat. No. p7170).
Primary antibodies raised to EGFR (CST Cat. No. 4267), phospho-EGFR (CST Cat. No. 3777), phospho-p44/42 MAPK(ERK1/2) (CST Cat. No. 9101S) and p44/42 MAPK (CST Cat. No. 9102S) were diluted (1:1000) in 5% BSA w/v. Loading control antibodies were prepared in 5% milk w/v with 1× TBS/T (0.1 v/v) solution at a determined optimum concentration.
Proteins were detected using Clarity ECL substrate (Bio-Rad) and imaged using a Licor Odyssey FC.

[11] = test system: EGFR phosphorylation (Tyr1068) in A431 (WT-EGFR) cells; experiment: HTRF cellular EGFR phosphorylation; type: cell-based; conditions: Homo sapiens, A-431, mean ± SD of 4 experiments, read-out: A431 pEGFR IC50
Experimental: Cells were plated at 20,000 cells per well in 96-well plates and placed at 37 °C with 5% CO2. Compounds were reconstituted in DMSO. Once adhered (after 24 h), cells were treated with compounds at a final concentration of 0.1% DMSO in media. Compounds were added to duplicate wells and incubated 37 °C for 3 h with 5% CO2. For A431 cells 0.5 h before the end of incubation; 100 ng/mL of EGF (Thermo Fisher, Cat. No. PHG0311) was added to all compound-treated cells as well as control. Compound and media were removed from the cells, and then 50 μL of HTRF lysis buffer was added (lysis buffer was diluted from 4× stock to 1× in deionized (DI) water, with 1% blocking agent also added). Cells were lysed on a plate shaker (2000 rpm) for 30 min at room temperature. pEGFR expression was assessed using the Human Phospho-EGFR (Tyr1068) cellular detection kit (Revvity, Cat. No. 64EG1PEH). Total EGFR expression was monitored using the Human Total EGFR cellular detection kit (Revvity, Cat. No. 64NG1PEH) as per the manufacturer’s instructions. Fluorescence emission was read at two different wavelengths (665 and 620 nm) on a PHERAstar microplate reader (BMG Labtech). Results were calculated as the ratio of pEGFR/total EGFR and then the percentage of 0 μM control.

[12] = test system: FLT3; experiment: Kinase selectivity panel; type: binding; conditions: 1.0 µM

Chain of recombinant doubly mutated EGFR L858R, T790M kinase domain (mLT-EGFR) (P00533 712-979 T790M/L858R limits assumed): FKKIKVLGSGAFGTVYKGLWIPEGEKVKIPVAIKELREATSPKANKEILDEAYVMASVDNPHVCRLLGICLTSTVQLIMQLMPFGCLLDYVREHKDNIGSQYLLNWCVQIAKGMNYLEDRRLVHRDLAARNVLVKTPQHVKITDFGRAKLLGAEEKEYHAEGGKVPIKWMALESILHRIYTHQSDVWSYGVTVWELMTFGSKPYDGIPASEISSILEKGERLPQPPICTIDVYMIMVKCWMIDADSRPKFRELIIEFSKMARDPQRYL

Compound: C#Cc1cc(=O)n(-c2ccccc2)c2nc(Nc3ccc(N(C)CCN(C)C)cc3)ncc12 [Compound 7, 2-((4-((2-(Dimethylamino)ethyl)(methyl)amino)phenyl)amino)-5-ethynyl-8-phenylpyrido[2,3-d]pyrimidin-7(8H)-one]
- Ki [1]: 0.022 ± 0.0013 µM
- GI50 [2]: 1.5 µM
- GI50 [3]: 0.049 ± 0.006 µM
- GI50 [4]: < 0.1 µM
- GI50 ([4]; Mus musculus, Ba/F3 EGFR, 72 h): 0.05 ± 0.0032 µM
- GI50 [5]: 1.1 µM
- GI50 [6]: 2.7 ± 1.1 µM
- GI50 [7]: 1.1 ± 1.1 µM
- concentration eliciting dose-dependent reduction in EGFR phosphorylation (Western blot) [8]: ≥ 100 nM
- number of kinases showing >75% inhibition [9]: 10
- reduction in ERK1/2 phosphorylation (Western blot) [10]: concomitant reduction in ERK1/2 phosphorylation
- IC50 [11]: 4.1 µM
- Mean (Percent Control) [12]: 15 Percent Control
